Data on two compounds can be found in patent US7402593B2 (priority 2004, dated 2008).

For data set [1] the following is noted: compared with other PPIs such as omeprazole or lansoprazole; cited from earlier work.
Data set [2] can be described thus: in vivo. Particulars: dog, plasma, po, 50 mg/kg.
Data set [3] in a line: solubility in water.

Where only a bound is given, the exact number is not on record here.

For orientation: AUC(0-t) means the area under the concentration-time curve up to a stated or last time point. A lower AUC(0-t) goes with low exposure. A word on the Cmax: it is the highest concentration seen after dosing. In general, Tmax refers to the time at which the peak concentration occurs. The solubility is how much of the substance goes into solution per volume. With `COc1ccc2[nH]c([S+]([O-])Cc3ncc(C)c(OC)c3C)nc2n1` (racemic) [racemic tenatoprazole, 5-methoxy-2-[ [(4-methoxy-3,5-dimethyl-2-pyridyl)methyl]sulfinyl]imidazo[4,5-b]pyridine], the “half-life in plasma relative to other PPIs” value in data set [1] is “approximately seven times longer”. In data set [2], the exposure AUC(0-t) was determined as 156 µg·h/mL, the highest level (Cmax) was 50.2 ng/mL and the Tmax amounted to 1.5 h. The same compound registered a solubility in data set [3] (water) of under 1000 µg/mL.

For `COc1ccc2nc([S+]([O-])Cc3ncc(C)c(OC)c3C)[n-]c2n1.[Na+]` (racemic) [sodium salt of racemic tenatoprazole], in data set [3] (room temperature), the “highest concentration of solution obtainable” value is at most 19 g/L.
